Source: patent US11225645B2 (priority 2002, dated 2022)
“Also recorded” adds a separate entry of the source. Where two headings read alike, the source gives them in different places.

Experiments:
[1] = system: coenzyme-binding glucose dehydrogenase; assay: Inhibitor test, additives added to Enzymatic activity measurement method 1; type: biochemical, Aspergillus terreus
[2] = system: coenzyme-binding glucose dehydrogenase; assay: Substrate specificity and Km value, Enzymatic activity measurement method 1; type: biochemical, Aspergillus terreus
Description: Employing each of D-glucose and other substrates (each at 333 mM as a final concentration, except for D-cellobiose at 193 mM, D-trehalose and D-raffinose at 121 mM), the enzymatic activity of this enzyme was measured by the Enzymatic activity measurement method 1. The activity on each substrate is represented as a relative value to the activity of this enzyme on D-glucose being regarded as 100%, and shown in Table 1.
Similarly, the relative reactivities (enzymatic activity) on D-glucose and maltose each at two final concentrations, i.e. 550 mM and 100 mM, were measured. The results are represented as relative values based on the value on D-glucose.

[3] = substrate 333 mM final, activity on D-glucose = 100%
[4] = additive 1 mM final concentration
[5] = substrate 121 mM final, activity on D-glucose = 100%

| Compound | Inhibition (%) [1] | Activity of the enzyme on the substrate (in words) ([2]; summary of Tables 1 and 2) | Inhibition (%) [1, 4] | further results |
| --- | --- | --- | --- | --- |
| [Cl-].[Cl-].[Mg+2] [MgCl2] | 2.8% | – | – | – |
| O=C(CO)[C@@H](O)[C@H](O)[C@@H](O)CO [L-Sorbose] | – | Almost no activity; also recorded: almost no effect | – | Relative activity (%) [2, 3]: 0.1> % |
| O=C(CO)[C@@H](O)[C@H](O)[C@H](O)CO [D-Fructose] | – | lower activity; also recorded: weakly | – | Relative activity (%) [2, 3]: 0.86% |
| [Cl][Cd][Cl] [CdCl2] | 0.8% | – | – | – |
| O=C(O)CC(O)C(=O)O (centres unmarked) [Malic acid] | – | – | 8.1% | – |
| O=C[C@H](O)[C@@H](O)[C@H](O)CO [D-Xylose] | – | – | – | Relative activity (%) [2, 3]: 9.1% |
| O=CC[C@@H](O)[C@H](O)[C@H](O)CO [2-Deoxy-D-glucose] | – | – | – | Relative activity (%) [2, 3]: 48% |
| [Cl-].[Li+] [LiCl] | – | – | 0.9% | – |
| CCN(CC)CCCC(C)Nc1c2ccc(Cl)cc2nc2ccc(OC)cc12 (centres unmarked) [Quinacrine] | – | – | 5.0% | – |
| OC[C@H]1O[C@H](OC[C@H]2O[C@H](O[C@]3(CO)O[C@H](CO)[C@@H](O)[C@@H]3O)[C@H](O)[C@@H](O)[C@@H]2O)[C@H](O)[C@@H](O)[C@H]1O [D-Raffinose] | – | Almost no activity; also recorded: almost no effect | – | Relative activity (%) [2, 5]: 0.1> % |
| O=C[C@H](O)[C@@H](O)[C@@H](O)[C@H](O)CO [D-Galactose] | – | lower activity; also recorded: weakly | – | Relative activity (%) [2, 3]: 1.2% |
| C[C@H](O)[C@H](O)[C@@H](O)[C@@H](O)C=O [L-Rhamnose] | – | Almost no activity; also recorded: almost no effect | – | Relative activity (%) [2, 3]: 0.1> % |
| O=P(O)(O)O[C@H]1O[C@H](CO)[C@@H](O)[C@H](O)[C@H]1O [D-Glucose-1-phosphate] | – | Almost no activity; also recorded: almost no effect | – | Relative activity (%) [2, 3]: 0.1> % |
| O=C(O)/C=C/C(=O)O [Fumaric acid] | – | – | 3.4% | – |
| Acriflavine | – | – | 49.0% | – |
| OC[C@@H](O)[C@@H](O)[C@H](O)[C@H](O)CO [D-Mannitol] | – | Almost no activity; also recorded: almost no effect | – | Relative activity (%) [2, 3]: 0.1> % |
| OC[C@H]1O[C@@](CO)(O[C@H]2O[C@H](CO)[C@@H](O)[C@H](O)[C@H]2O)[C@@H](O)[C@@H]1O [Sucrose] | – | Almost no activity; also recorded: almost no effect | – | Relative activity (%) [2, 3]: 0.1> % |
| O=C[C@H](O)[C@@H](O)[C@H](O)[C@H](O)COP(=O)(O)O [D-Glucose-6-phosphate] | – | lower activity; also recorded: weakly | – | Relative activity (%) [2, 3]: 1.1% |
| c1ccc(-c2ccccn2)nc1 [2,2′-Bipyridine] | – | – | 10.8% | – |
| [Cl][Hg][Cl] [HgCl2] | – | – | 100% | Inhibitory effect (in words) ([1]; additive 1 mM final concentration, listed as Hg^2+): highest; also recorded: inhibited potently |
| OC[C@@H](O)[C@@H](O)[C@H](O)[C@@H](O)CO [D-Sorbitol] | – | Almost no activity; also recorded: almost no effect | – | Relative activity (%) [2, 3]: 0.1> % |
| CCO [Ethanol] | – | Almost no activity; also recorded: almost no effect | – | Relative activity (%) [2, 3]: 0.1> % |

| Compound | Inhibition (%) [1] | Activity of the enzyme on the substrate (in words) ([2]; summary of Tables 1 and 2) | Inhibition (%) [1, 4] | further results |
| --- | --- | --- | --- | --- |
| [Cl][Cu][Cl] [CuCl2] | 100% | – | – | Inhibitory effect (in words) [1]: highest; also recorded: inhibited potently |
| [Cl-].[Cl-].[Zn+2] [ZnCl2] | 0% | – | – | – |
| Oc1cccc2cccnc12 [8-Quinolinol] | 13.9% | – | – | – |
| CC(C)(S)C(N)C(=O)O (racemic) [DL-Penicillamine] | – | – | 4.3% | – |
| OC[C@H]1O[C@@H](O[C@H]2[C@H](O)[C@@H](O)C(O)O[C@@H]2CO)[C@H](O)[C@@H](O)[C@H]1O (some centres unmarked) [Lactose] | – | Almost no activity; also recorded: almost no effect | – | Relative activity (%) [2, 3]: 0.1> % |
| OO [H2O2] | 1.7% | – | – | – |
| O=C(O)C(O)C(O)C(=O)O (stereo not drawn) [Meso-tartaric acid] | – | – | 5.6% | – |
| [Ba+2].[Cl-].[Cl-] [BaCl2] | – | – | 2.6% | – |
| O=C(O)/C=C\C(=O)O [Maleic acid] | – | – | 26.2% | – |
| OC[C@H]1O[C@@H](O[C@H]2[C@H](O)[C@@H](O)[C@H](O)O[C@@H]2CO)[C@H](O)[C@@H](O)[C@@H]1O [D-Cellobiose] | – | lower activity; also recorded: weakly | – | Relative activity (%) ([2]; substrate 193 mM final, activity on D-glucose = 100%): 2% |
| OC[C@H]1O[C@H](O[C@H]2O[C@H](CO)[C@@H](O)[C@H](O)[C@H]2O)[C@H](O)[C@@H](O)[C@@H]1O [D-Trehalose] | – | lower activity; also recorded: weakly | – | Relative activity (%) [2, 5]: 1.7% |
| [Ca+2].[Cl-].[Cl-] [CaCl2] | 5.7% | – | – | – |
| O=C[C@H](O)[C@@H](O)[C@H](O)[C@H](O)CO [D-Glucose] | – | higher activity; also recorded: potently | – | Km [2]: 49.7 mM; Relative activity (%) [2, 3]: 100%; Relative activity (%) ([2]; substrate final conc. 100 mM, D-glucose = 100%): 100%; Relative activity (%) ([2]; substrate final conc. 550 mM, D-glucose = 100%): 100% |
| [Cl][Pb][Cl] [PbCl2] | 2.7% | – | – | – |
| O=C(O)[C@@H](O)[C@H](O)C(=O)O [D-Tartaric acid] | – | – | 8.5% | – |
| O=C(O)CC(O)(CC(=O)O)C(=O)O [Citric acid] | – | – | 5.6% | – |
| O=C(O)[C@H](O)[C@@H](O)[C@H](O)[C@H](O)CO [Gluconic acid] | – | – | – | Activity of the enzyme on the substrate (in words) [2]: Almost no activity; also recorded: almost no effect; Relative activity (%) [2]: 0.1> % |
| N[C@@H]1CON=C1O [Cycloserine] | – | – | 3.6% | – |
| O=C(O)c1ccccc1 [Benzoic acid] | 0% | – | – | – |
| TritonX-100 | – | – | 6.2% | – |
| NCCS [Cysteamine] | – | – | 9.8% | – |
| CCN1C(=O)C=CC1=O [N-Ethylmaleimide] | – | – | 1.8% | – |

| Compound | Inhibition (%) [1] | Activity of the enzyme on the substrate (in words) ([2]; summary of Tables 1 and 2) | Inhibition (%) [1, 4] | further results |
| --- | --- | --- | --- | --- |
| NN=C(N)N.O=S(=O)(O)O [Aminoguanidine sulfate] | 1.1% | – | – | – |
| [Cl][Fe]([Cl])[Cl] [FeCl3] | 25.0% | – | – | – |
| O=C[C@H](O)[C@H](O)[C@H](O)CO [D-Ribose] | – | Almost no activity; also recorded: almost no effect | – | Relative activity (%) [2, 3]: 0.1> % |
| NC(N)=O [Urea] | – | – | 1.9% | – |
| Nc1ccc2cc3ccc(N)cc3nc2c1 [Proflavin] | – | – | 62.0% | – |
| [Cl-].[Na+] [NaCl] | 2.5% | – | – | – |
| OCC(O)CO [Glycerol] | – | Almost no activity; also recorded: almost no effect | – | Relative activity (%) [2, 3]: 0.1> % |
| O=C(O)c1ccccc1[N+](=O)[O-] [2-Nitrobenzoic acid] | – | – | 44.3% | – |
| O=C[C@H](O)[C@@H](O)[C@@H](O)CO [L-Arabinose] | – | Almost no activity; also recorded: almost no effect | – | Relative activity (%) [2, 3]: 0.1> % |
| O=C[C@@H](O)[C@@H](O)[C@H](O)[C@H](O)CO [D-Mannose] | – | lower activity; also recorded: weakly | – | Relative activity (%) [2, 3]: 2.8% |
| O=C(O)CI [Iodoacetic acid] | 9.5% | – | – | – |
| CoCl2 | 7.0% | – | – | – |
| [Cl][Ni][Cl] [NiCl2] | 16.5% | – | – | – |
| [Cl][Sn][Cl] [SnCl2] | 45.5% | – | – | – |
| [N-]=[N+]=[N-].[Na+] [NaN3] | 0% | – | – | – |
| OC[C@H]1OC[C@H](O)[C@@H](O)[C@@H]1O [1,5-Anhydro-D-glucitol] | – | lower activity; also recorded: weakly | – | Relative activity (%) [2, 3]: 2% |
| CC(O)C(=O)O.CCOc1ccc2nc3cc(N)ccc3c(N)c2c1 [Acrinol] | – | – | 29.0% | – |
| [Cl][Al]([Cl])[Cl] [AlCl3] | 0% | – | – | – |
| O=C(O)CN(CCN(CC(=O)O)CC(=O)O)CC(=O)O [EDTA] | 0.4% | – | – | – |
| O=S(=O)([O-])c1cc(O)c(O)c(S(=O)(=O)[O-])c1.[Na+].[Na+] [Tirone] | 2.5% | – | – | – |
| O=[N+]([O-])[O-].[Ag+] [AgNO3] | 99.4% | – | – | Inhibitory effect (in words) [1]: highest; also recorded: inhibited potently |
